Tests used:
WiDr cells = assay: Cell proliferation assay Method B, WiDr; assay type: cell-based; settings: Homo sapiens, Colon, 72 hours, read-out: antiproliferative activity IC50, WiDr
Experimental: (§1) Cancer cell lines were plated at 5,000 to 10,000 per well in 96-well flat bottomed plates with various concentration of compounds. The cells were incubated with compounds for 72 hours in the presence of 0.5% of fetal bovine serum. Growth inhibition was accessed by adenosine triphosphate (ATP) content assay using Promega CellTiter-Glo kit. Promega CellTiter-Glo kit is an ATP monitoring system based on firefly luciferase. Briefly, 16 μl of mammalian cell lysis and substrate solution was added to 84 μl of culture medium per well to lyse the cells and stabilize the ATP. The mixture was shaken and incubated for 30 minutes and subsequently the luminescence was measured.

HCT116 cells = assay: Cell proliferation assay Method B, HCT116; assay type: cell-based; settings: Homo sapiens, HCT-116, Colon, 72 hours, read-out: antiproliferative activity IC50, HCT116
Experimental: as §1

SWI-116 cells = assay: Cell proliferation assay Method B, SWI-116; assay type: cell-based; settings: Colon, 72 hours, read-out: antiproliferative activity IC50, SWI-116
Experimental: as §1

H292 cells = assay: Cell proliferation assay Method B, H292; assay type: cell-based; settings: Homo sapiens, NCI-H292, NSCLC, 72 hours, read-out: antiproliferative activity IC50, H292
Experimental: as §1

Calu6 cells = assay: Cell proliferation assay Method B, Calu6; assay type: cell-based; settings: Homo sapiens, Calu-6, NSCLC, 72 hours, read-out: antiproliferative activity IC50, Calu6
Experimental: as §1

H1975 cells = assay: Cell proliferation assay Method B, H1975; assay type: cell-based; settings: Homo sapiens, NCI-H1975; NSCLC; Method B; 72 hours; read-out: antiproliferative activity IC50, H1975
Experimental: as §1

CaPan2 cells = assay: Cell proliferation assay Method B, CaPan2; assay type: cell-based; settings: Homo sapiens, Capan-2, Pancreas, 72 hours, read-out: antiproliferative activity IC50, CaPan2
Experimental: as §1

PANC-1 cells = assay: Cell proliferation assay Method B, PANC-1; assay type: cell-based; settings: Homo sapiens, Pancreas, 72 hours, read-out: antiproliferative activity IC50, PANC-1
Experimental: as §1

SW1990 cells = assay: Cell proliferation assay Method B, SW1990; assay type: cell-based; settings: Homo sapiens, Pancreas, 72 hours, read-out: antiproliferative activity IC50, SW1990
Experimental: as §1

PC-3 cells = assay: Cell proliferation assay Method B, PC-3; assay type: cell-based; settings: Homo sapiens, Prostate, 72 hours, read-out: antiproliferative activity IC50, PC-3
Experimental: as §1

LN-Cap cells = assay: Cell proliferation assay Method B, LN-Cap; assay type: cell-based; settings: Homo sapiens, LNCaP, Prostate, 72 hours, read-out: antiproliferative activity IC50, LN-Cap
Experimental: as §1

BT474 cells = assay: Cell proliferation assay Method B, BT474; assay type: cell-based; settings: Homo sapiens, BT-474; Breast; Method B; 72 hours; read-out: antiproliferative activity IC50, BT474
Outline: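 72 h compound exposure, 0.5% FBS, 5,000–10,000 cells/well; readout = ATP content via luciferase luminescence (CellTiter-Glo), 30 min after lysis reagent.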

A375 cells = assay: Cell proliferation assay Method B, A375; assay type: cell-based; settings: Homo sapiens, A-375; Melanoma; Method B; 72 hours; read-out: antiproliferative activity IC50, A375
Experimental: as §1

Daudi cells = assay: Cell proliferation assay Method B, Daudi; assay type: cell-based; settings: Homo sapiens, NHL, 72 hours, read-out: antiproliferative activity IC50, Daudi
Experimental: as §1

glioblastoma xenografts = settings: oral dosage; Folkes et al. 2008; cited from earlier work
PI3Kδ (p110δ/p85α) = target: T1, PI3Kδ (p110δ/p85α) (Homo sapiens, UniProt O00329); assay: PI3Kδ fluorescence polarization assay; assay type: biochemical; settings: 10 μM ATP
T1 construct: N-terminal histidine-tagged recombinant full-length human p110δ; His tag (N); made in house; host or cells: Baculovirus-infected Sf9 insect cells
T1 sequence (O00329 whole entry): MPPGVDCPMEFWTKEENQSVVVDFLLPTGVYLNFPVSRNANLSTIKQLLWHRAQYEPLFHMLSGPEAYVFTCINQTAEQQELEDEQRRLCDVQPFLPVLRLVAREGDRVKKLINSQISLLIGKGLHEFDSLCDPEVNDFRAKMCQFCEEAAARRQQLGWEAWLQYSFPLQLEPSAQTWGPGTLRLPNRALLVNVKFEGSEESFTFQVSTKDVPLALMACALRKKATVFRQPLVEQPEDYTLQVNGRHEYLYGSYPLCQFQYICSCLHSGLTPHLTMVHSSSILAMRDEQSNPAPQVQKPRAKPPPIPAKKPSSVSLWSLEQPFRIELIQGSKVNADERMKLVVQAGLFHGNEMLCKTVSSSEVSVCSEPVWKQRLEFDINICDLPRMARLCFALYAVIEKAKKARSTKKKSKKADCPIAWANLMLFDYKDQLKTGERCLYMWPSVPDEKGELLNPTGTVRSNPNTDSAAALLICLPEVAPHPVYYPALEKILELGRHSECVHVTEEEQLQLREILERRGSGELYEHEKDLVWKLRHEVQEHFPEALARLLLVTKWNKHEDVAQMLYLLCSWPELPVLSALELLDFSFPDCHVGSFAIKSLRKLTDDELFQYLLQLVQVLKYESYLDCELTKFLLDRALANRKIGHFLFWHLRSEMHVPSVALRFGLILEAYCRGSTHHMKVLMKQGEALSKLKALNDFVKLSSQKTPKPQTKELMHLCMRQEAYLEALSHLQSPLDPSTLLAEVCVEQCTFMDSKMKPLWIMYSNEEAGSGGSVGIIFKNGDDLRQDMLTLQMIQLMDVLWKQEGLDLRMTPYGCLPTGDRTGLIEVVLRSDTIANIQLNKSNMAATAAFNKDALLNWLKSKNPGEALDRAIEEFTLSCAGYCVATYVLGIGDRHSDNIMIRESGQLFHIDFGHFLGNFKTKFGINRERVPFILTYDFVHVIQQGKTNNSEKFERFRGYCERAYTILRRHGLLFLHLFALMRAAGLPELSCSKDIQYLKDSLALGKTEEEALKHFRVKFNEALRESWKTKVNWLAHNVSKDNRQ
T1 sequence (P27986 whole entry partner): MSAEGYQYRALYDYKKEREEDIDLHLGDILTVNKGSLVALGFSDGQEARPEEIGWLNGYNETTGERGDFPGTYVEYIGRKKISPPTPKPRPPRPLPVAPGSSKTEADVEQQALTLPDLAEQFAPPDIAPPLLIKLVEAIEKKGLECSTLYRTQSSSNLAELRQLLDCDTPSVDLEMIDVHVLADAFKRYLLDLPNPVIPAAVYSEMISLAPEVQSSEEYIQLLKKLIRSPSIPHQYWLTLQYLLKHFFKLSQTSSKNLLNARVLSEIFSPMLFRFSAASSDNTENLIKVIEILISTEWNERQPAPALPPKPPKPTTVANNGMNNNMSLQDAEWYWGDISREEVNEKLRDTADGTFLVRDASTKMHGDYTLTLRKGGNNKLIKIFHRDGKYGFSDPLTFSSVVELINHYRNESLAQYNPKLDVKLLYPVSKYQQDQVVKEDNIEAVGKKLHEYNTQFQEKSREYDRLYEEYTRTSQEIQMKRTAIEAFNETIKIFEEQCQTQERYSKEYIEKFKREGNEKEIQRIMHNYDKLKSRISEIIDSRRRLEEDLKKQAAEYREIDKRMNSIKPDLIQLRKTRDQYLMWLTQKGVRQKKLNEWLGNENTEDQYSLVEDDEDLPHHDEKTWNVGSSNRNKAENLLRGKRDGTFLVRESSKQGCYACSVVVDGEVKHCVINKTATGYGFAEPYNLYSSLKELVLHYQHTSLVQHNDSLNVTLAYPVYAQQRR
Experimental: The proteins are purified by one-step affinity chromatography using glutathione-agarose. […] The reaction product was then mixed with a PIP3 detector protein and the fluorescent PIP3 probe. Polarization (mP) values decrease as fluorescent probe binding to the PIP3 detector is displaced by PIP3 produced by enzymatic activity and the amount of unbound fluorescent probe in the mixture increases. Polarization degrees (mP) value was determined using microplate reader with background subtraction.

[1] = system: HDACs (HeLa cell nuclear extracts); assay: HDAC enzymatic activity, Biomol Color de Lys system; assay type: biochemical
Outline: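 IC50 from sigmoidal dose-response fits of fluorescence (Ex 350–380, Em 440–460 nm). Compounds in DMSO dilution series incubated 1 h at 25 °C with HeLa nuclear extract HDACs and colorimetric substrate, pH 8.0 Tris/Cl buffer with NaCl, KCl, MgCl2, before developer termination.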

Sk-Mel-28 cells = assay: Cell proliferation assay Method A (ATPlite), Sk-Mel-28; assay type: cell-based; settings: Homo sapiens, 72 hours, read-out: antiproliferative activity IC50, Sk-Mel-28
Experimental: (§2) Cancer cell lines were plated at 5,000 to 10,000 per well in 96-well flat bottomed plates with various concentration of compounds. The cells were incubated with compounds for 72 hours in the presence of 0.5% of fetal bovine serum. Growth inhibition was accessed by adenosine triphosphate (ATP) content assay using Perkin Elmer ATPlite kit. ATPlite is an ATP monitoring system based on firefly luciferase. Briefly, 25 μl of mammalian cell lysis solution was added to 50 μl of phenol red-free culture medium per well to lyse the cells and stabilize the ATP. 25 μl of substrate solution was then added to the well and subsequently the luminescence was measured.

H1993 cells = assay: Cell proliferation assay Method A (ATPlite), H1993; assay type: cell-based; settings: Homo sapiens, NCI-H1993, 72 hours, read-out: antiproliferative activity IC50, H1993
Experimental: as §2

MDA-MB-468 cells = assay: Cell proliferation assay Method B, MDA-MB-468; assay type: cell-based; settings: Homo sapiens, Breast, Method B, 72 hours, read-out: antiproliferative activity IC50, MDA-MB-468
Experimental: as §1

SUP-B15 cells = assay: Cell proliferation assay Method B, SUP-B15; assay type: cell-based; settings: Homo sapiens, ALL, 72 hours, read-out: antiproliferative activity IC50, SUP-B15
Experimental: as §1

## CS(=O)(=O)N1CCN(Cc2cc3nc(-c4cccc5[nH]ncc45)nc(N4CCOCC4)c3s2)CC1 [GDC-0941, reference compound]
WiDr cells
  IC50: > 10 µM
HCT116 cells
  IC50: 1 to 10 µM
SWI-116 cells
  IC50: > 10 µM
H292 cells
  IC50: 1 to 10 µM
Calu6 cells
  IC50: > 10 µM
H1975 cells
  IC50: 0.1 to 1 µM
CaPan2 cells
  IC50: > 10 µM
PANC-1 cells
  IC50: 1 to 10 µM
SW1990 cells
  IC50: > 10 µM
PC-3 cells
  IC50: 1 to 10 µM
LN-Cap cells
  IC50: 0.1 to 1 µM
BT474 cells
  IC50: 0.1 to 1 µM
A375 cells
  IC50: 1 to 10 µM
Daudi cells
  IC50: > 10 µM
Glioblastoma xenografts
  tumor suppression in glioblastoma xenografts: tumor suppression

## CN(Cc1cc2nc(-c3ccc(N)cc3)nc(N3CCOCC3)c2s1)c1ncc(C(=O)NO)cn1 [Compound 150, 2-(((2-(4-aminophenyl)-4-morpholinothieno[3,2-d]pyrimidin-6-yl)methyl)(methyl)amino)-N-hydroxypyrimidine-5-carboxamide]
PI3Kδ (p110δ/p85α)
  IC50: < 0.1 µM
[1]
  IC50: < 0.1 µM
Sk-Mel-28 cells
  IC50: < 0.1 µM
H1993 cells
  IC50: < 0.1 µM
H1975 cells
  IC50: < 0.01 µM
BT474 cells
  IC50: < 0.01 µM
MDA-MB-468 cells
  IC50: 0.01 to 0.1 µM
A375 cells
  IC50: < 0.01 µM
SUP-B15 cells
  IC50: < 0.01 µM
Daudi cells
  IC50: < 0.01 µM
